Experimental data: ChEMBL document CHEMBL2440108, “Synthesis and enzymatic evaluation of phosphoramidon and its β anomer: Anomerization of α-l-rhamnose triacetate upon phosphitylation” (Bioorg Med Chem, 2013)

Experiments:
Thermolysin [1] = target: T1, Thermolysin (Bacillus thermoproteolyticus, UniProt P00800); experiment: Binding affinity to Bacillus thermoproteolyticus thermolysin at pH 7.5 after 15 mins by fluorescence spectrophotometry
T1 sequence (P00800 whole entry): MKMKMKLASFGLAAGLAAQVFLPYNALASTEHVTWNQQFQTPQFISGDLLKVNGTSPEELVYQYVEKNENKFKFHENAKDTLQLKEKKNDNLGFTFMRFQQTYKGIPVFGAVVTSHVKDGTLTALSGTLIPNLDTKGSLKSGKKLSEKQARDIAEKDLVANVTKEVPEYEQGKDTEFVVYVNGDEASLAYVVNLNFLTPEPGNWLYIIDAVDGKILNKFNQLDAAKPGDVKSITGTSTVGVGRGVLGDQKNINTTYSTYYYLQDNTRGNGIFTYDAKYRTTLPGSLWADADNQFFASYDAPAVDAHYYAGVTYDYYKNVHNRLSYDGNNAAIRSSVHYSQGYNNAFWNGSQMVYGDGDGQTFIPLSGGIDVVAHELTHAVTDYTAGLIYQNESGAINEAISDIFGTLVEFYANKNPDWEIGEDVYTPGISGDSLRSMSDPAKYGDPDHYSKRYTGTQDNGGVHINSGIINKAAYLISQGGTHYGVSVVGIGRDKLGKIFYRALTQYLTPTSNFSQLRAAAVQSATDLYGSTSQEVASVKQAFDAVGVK

Thermolysin [2] = target: T1, Thermolysin; experiment: Inhibition of Bacillus thermoproteolyticus thermolysin using […] as substrate at pH 7.5 after 15 mins by Henderson plot analysis
[3] = Inhibition of endothelin-converting enzyme (unknown origin); parameters: species or system Homo sapiens
Thermolysin [4] = target: T1, Thermolysin; experiment: Inhibition of Bacillus thermoproteolyticus thermolysin

SMILES | Kd (Thermolysin [1]) | Ki (Thermolysin [2]) | IC50 [3] | Ki (Thermolysin [4])
CC(C)C[C@H](NP(=O)(O)O[C@H]1O[C@@H](C)[C@H](O)[C@@H](O)[C@H]1O)C(=O)N[C@@H](Cc1c[nH]c2ccccc12)C(=O)O | 210 nM | 280 nM | – | –
CC(C)C[C@H](NP(=O)(O)O[C@@H]1O[C@@H](C)[C@H](O)[C@@H](O)[C@H]1O)C(=O)N[C@@H](Cc1c[nH]c2ccccc12)C(=O)O | – | 30 nM | 690 nM | 32 nM
